Structures can show the parent of a compound that is named as a salt. Where two headings read alike, the source gives them in different places.
Key:
[1] = system: Plasmodium falciparum 3D7; test: microbe, parasite or virus in culture; conditions: for EC50: read-out: P. fal. EC50; for Percentage inhibition of the growth of Plasmodium falciparum: Prestwick Library pilot screen, duplicate
Procedure: Growth inhibition was quantified using a fluorescence assay utilizing the binding of SYBR Green I to double stranded DNA, which emits a fluorescent signal at 528 nm after excitation at 485 nm. The SYBR Green assay system was adapted to maximize robustness and to align with available automation systems. The Prestwick Library then used as a pilot screen to validate the performance of the optimized assay. […] Single point screens were carried out, and the potency of compounds of interest was determined in duplicate on two independent occasions. A 96-well [^3H]-Hypoxanthine incorporation assay was also developed as a secondary assay in order to validate key compounds from each hit series in an orthogonal platform.
(§1) All data were processed using IDBS ActivityBase. […] The formula used to calculate Z’ is 1-3×(StDev_high+StDev_low)/ABS(Mean_high-Mean_low) .
Two independent assays were run.

[2] = system: normal diploid human fibroblasts (MRC-5 pd30); test: in vitro; assay type: cell-based
Procedure: Cells were plated and incubated overnight to allow them to adhere as monolayers. A working stock of each test compound was transferred to an intermediate 384-well plate and pre-diluted with minimum essential media (MEM). The pre-diluted stocks were then transferred onto the cell monolayers, and the plates were incubated for 68 h. Resazurin, to a final concentration of 50 μM was added to each well, after which plates were incubated for a further 3 h and measured for fluorescence (λ ex = 528 nm, λ em = 590 nm).
as §1
All EC50 Curve fitting was undertaken using XLFit version 4.2 using Model 205 with the following 4 parametric equation: y=A+B-A/1+[…], where A = % inhibition at bottom, B = % inhibition at top, C = EC50, D = slope, x = inhibitor concentration and y = % inhibition.

[3] = Table 8, MMV03 SAR, read-out: MRC5 EC50
[4] = Plasmodium falciparum, 3D7, read-out: Percentage inhibition of the growth of Plasmodium falciparum, Prestwick Library pilot screen, screening conc. 0.004 mM, duplicate
[5] = Plasmodium falciparum, read-out: Percentage inhibition of the growth of Plasmodium falciparum
[6] = Plasmodium falciparum, 3D7, read-out: Percentage inhibition of the growth of Plasmodium falciparum, Prestwick Library pilot screen, screening conc. 0.007 mM, duplicate

FC(F)(F)Oc1ccc(Nc2cc(-c3cccc(C(F)(F)F)c3)nc(-c3ccccc3)n2)cc1 [Compound A0022]
activity against P. falciparum relative to A0002 ([1]; MMV02 series): tenfold less active | EC50 ([1]; Table 6, MMV02 SAR): 2.3 µM | EC50 ([2]; Table 6, MMV02 SAR, read-out: MRC5 EC50): 11 µM

CC(C)CCNC(=O)c1cn(-c2ccccc2)nc1-c1cccs1 [Compound A0036]
LLE (ligand-lipophilicity efficiency) ([1]; Table 8, MMV03 SAR): 1.1 | EC50 ([1]; Table 8, MMV03 SAR): 18 µM | EC50 [2, 3]: 50 µM

Cc1cc(NC(=O)c2cn(-c3ccccc3)nc2-c2cccs2)[nH]n1 [Compound A0012]
LLE (ligand-lipophilicity efficiency) ([1]; Table 8, MMV03 SAR): 1.9 | EC50 ([1]; Table 8, MMV03 SAR): 6 µM | EC50 [2, 3]: 24 µM

COc1cc(NC(C)CCCN)c2ncccc2c1 (stereo not shown) [Primaquine diphosphate, reference compound]
inhibition at 4 µM [1, 4]: 100 ± 4%

[H]/N=C(\N/C(=N/[H])NCCCCCCNC(=N)NC(=N)Nc1ccc(Cl)cc1)Nc1ccc(Cl)cc1 [Chlorhexidine, reference compound]
inhibition at 4 µM [1, 4]: 98 ± 1%

Br.CC[C@H]1CN2CCC1C[C@H]2[C@H](O)c1ccnc2ccc(OC)cc12.O (stereo partly shown) [Hydroquinine hydrobromide hydrate, reference compound]
Percentage inhibition of the growth of Plasmodium falciparum ([1]; screening conc. 0.005 mM): 99 ± 2%

C=C[C@H]1CN2CC[C@H]1C[C@@H]2[C@@H](O)c1ccnc2ccc(OC)cc12.Cl.O [Quinidine hydrochloride monohydrate, reference compound]
Percentage inhibition of the growth of Plasmodium falciparum ([1]; screening conc. 0.005 mM): 100 ± 2%

COc1ccc(C[C@H](N)C(=O)N[C@H]2[C@@H](O)[C@H](n3cnc4c(N(C)C)ncnc43)O[C@@H]2CO)cc1 [Puromycin dihydrochloride, reference compound]
inhibition at 4 µM [1, 4]: 96 ± 5%

COc1cccc2c1C(=O)c1c(O)c3c(c(O)c1C2=O)C[C@@](O)(C(=O)CO)C[C@@H]3O[C@H]1C[C@H](N)[C@H](O)[C@H](C)O1 [doxorubicin, reference compound]
EC50 ([2]; Homo sapiens, MRC5, MRC-5 counter-screen plates, read-out: potency range (standard reference compound)): 0.2 to 0.4 µM

CN(CCCCCCCCCCN(C)C(=O)Oc1cccc([N+](C)(C)C)c1)C(=O)Oc1cccc([N+](C)(C)C)c1 [Demecarium bromide, reference compound]
inhibition at 3 µM [1, 5]: 104 ± 2%

COc1ccc2c(c1OC)CN1CCc3cc4c(cc3C1C2)OCO4 (stereo not shown) [(d,l)-Tetrahydroberberine, reference compound]
Percentage inhibition of the growth of Plasmodium falciparum ([1]; screening conc. 0.006 mM): 83 ± 2%

COc1cc2nc(N3CCN(C(=O)C4COc5ccccc5O4)CC3)nc(N)c2cc1OC (stereo not shown) [Doxazosin mesylate, reference compound]
inhibition at 4 µM [1, 4]: 84 ± 0.6%

CCN(CC)CCCC(C)Nc1ccnc2cc(Cl)ccc12 (stereo not shown) [Chloroquine diphosphate, reference compound]
inhibition at 4 µM [1, 5]: 104 ± 1%

C[C@@H]1CC[C@H]2[C@@H](C)C(=O)O[C@@H]3O[C@@]4(C)CC[C@@H]1[C@]32OO4 [Artemisinin, reference compound]
inhibition at 7 µM [1, 6]: 99.5 ± 0.1% | Percentage inhibition of the growth of Plasmodium falciparum ([1]; screening conc. 0.007 mM): 100%

CC[C@H]1CN2CCc3cc(OC)c(OC)cc3[C@@H]2C[C@@H]1C[C@H]1NCCc2cc(O)c(OC)cc21.Cl.Cl.O.O.O.O.O.O.O [Cephaeline dihydrochloride heptahydrate, reference compound]
Percentage inhibition of the growth of Plasmodium falciparum ([1]; screening conc. 0.003 mM): 101 ± 3%

CCCCCCCCCCCCCCCC[N+](C)(C)CCN(Cc1ccc(OC)cc1)c1ncccn1 [Thonzonium bromide, reference compound]
inhibition at 3 µM ([1]; Plasmodium falciparum, 3D7, read-out: Percentage inhibition of the growth of Plasmodium falciparum, Prestwick Library pilot screen, screening conc. 0.003 mM, duplicate): 70 ± 1%

COc1ccc(C[C@H]2NC[C@H](O)[C@H]2OC(C)=O)cc1 [Anisomycin, reference compound]
Percentage inhibition of the growth of Plasmodium falciparum ([1]; screening conc. 0.008 mM): 102 ± 2%

O=C1c2c(O)ccc(O)c2C(=O)c2c(NCCNCCO)ccc(NCCNCCO)c21 [Mitoxantrone dihydrochloride, reference compound]
inhibition at 4 µM [1, 4]: 140 ± 2%

C[C@@H]1C[C@@H]([C@H](O)CC2CC(=O)NC(=O)C2)C(=O)[C@@H](C)C1 [Cycloheximide, reference compound]
inhibition at 7 µM [1, 5]: 103.1 ± 0.1%

[H]/N=C(\N/C(=N/[H])Nc1ccc(Cl)cc1)NC(C)C [Proguanil hydrochloride, reference compound]
inhibition at 7 µM [1, 6]: 49 ± 4%

CCCCOc1ccc(CC(=O)NO)cc1 [Bufexamac, reference compound]
inhibition at 9 µM ([1]; Plasmodium falciparum, 3D7, read-out: Percentage inhibition of the growth of Plasmodium falciparum, Prestwick Library pilot screen, screening conc. 0.009 mM, duplicate): 69 ± 2%

Reference: article PMC5678585, “Screening a protein kinase inhibitor library against Plasmodium falciparum” (Malaria Journal, 2017)
